Earlier results as cited in patent publication US8354043B2, “Natural gas odorization” (Enersol Inc., N.A.L.P., priority 2008, dated 2013).
Structures can show the parent of a compound that is named as a salt.

Conditions: 20° C. and 1 atm

Molecule	Pvap @ 20° C. (vapor pressure) [psi]
O=C1CCCO1 [Compound 17, γ-Butyrolactone]	0.03
CCCC(=O)C(C)=O [Compound 24, 2,3-Hexanedione]	0.19
CC(=O)CC(C)=O [Compound 25, Aceylacetone]	0.13
CC(=O)CCC(C)=O [Compound 27, 2,5-Hexanedione]	0.01
O=CC1CCCCC1 [Compound 34, Cyclohexanal]	0.05
O=CC1CCCC1 [Compound 36, Cyclopentaldehyde]	0.17
CC(=O)C=O [Compound 42, 2-Oxo-propanal]	0.52
CC=CC=O [Compound 43, 2-Butenal]	0.58
CCCOC=O [Compound 48, Propyl formate]	1.60
CC(C)OC=O [Compound 49, Isopropyl formate]	2.67

Same assay, conditions: 25° C. and 1 atm

Molecule	Pvap @ 25° C. (vapor pressure)
3-Cyclohex-1-one [Compound 10]	0.04 psi
O=c1ccocc1 [Compound 2, 4-Pyrone]	0.004 psi
O=C1C=CCCC1 [Compound 9, 2-Cyclohex-2-en-1-one]	0.07 psi
O=C1CCCCC1 [Compound 11, Cyclohexanone]	0.08 psi
CC(=O)C1CCCCC1 [Compound 12, Cyclohexyl methyl ketone]	.02 psi
CC(=O)C1=CCCCC1 [Compound 13, 1-(1-Cyclohexen-1-yl)-ethanone]	0.003 psi
O=C1CC=CO1 [Compound 15, 2(3H)-Furanone]	0.02 psi
O=C1CCCO1 [Compound 17, γ-Butyrolactone]	0.01 psi
O=C1C=CCC1 [Compound 18, 2-Cyclopenten-1-one]	0.18 psi
CC(=O)C1CCCC1 [Compound 21, 1-Cyclopentyl-ethanone]	0.07 psi
CCC(=O)C(C)=O [Compound 23, 2,3-Petanedione]	0.60 psi
CCCC(=O)C(C)=O [Compound 24, 2,3-Hexanedione]	0.06 psi
CC(=O)CC(C)=O [Compound 25, Aceylacetone]	0.06 psi
CCC(=O)CC(C)=O [Compound 26, 2,4-Hexandione]	0.06 psi
CC(=O)CCC(C)=O [Compound 27, 2,5-Hexanedione]	0.06 psi
C=CC(C)=O [Compound 28, Methyl vinyl ketone]	2.94 psi
C=CC(=O)CC [Compound 29, Ethyl vinyl ketone]	0.74 psi
O=CC=O [Compound 38, Ethanedial]	4.93 psi
O=CCC=O [Compound 39, Malondialdehyde]	0.09 psi
O=CCCCC=O [Compound 41, Pentane-1,5-dial]	0.01 psi
CCOC=O [Compound 47, Ethyl formate]	4.74 psi
